Data reported in patent publication US6503929B1, “Nitrate salt of anti-ulcer medicine” (Nicox S.A., priority 1998, dated 2003).
Where a name gives a salt, the structure may show the parent alone.

Assays:
rats [1] = experiment: Anti-ulcer activity: gastric lesions produced by absolute ethyl alcohol (Robert et al. model); format: in vivo, rat; settings: rats on empty stomach, oral dose 15 minutes before absolute ethyl alcohol (1 ml), sacrificed one hour later, cimetidine 50 mg/Kg, cimetidine nitrate 62,5 mg/Kg, ranitidine 50 mg/Kg, ranitidine nitrate 60 mg/Kg
Protocol: Anti-ulcer activity is evaluated according to the experimental model described in the paper of A. Robert e Al. “Cytoprotection by prostaglandins in rats. Prevention of gastric necrosis produced by alcohol, HCl, NaOH, hypertonic NaCl and thermal injury” 77, 433-43 1979. To 5 groups of 10 rats each, kept on empty stomach since the previous night, 15 minutes before the supply of absolute ethyl alcohol (1 ml), by oral way are supplied: 5 ml/Kg of carboxymethylcellulose aqueous suspension 2%. 50 mg/Kg of cimetidine in 5 ml/Kg of carboxymethylcellulose aqueous suspension 2%. 62,5 mg/Kg of cimetidine nitrate (corresponding to 50 mg/Kg of cimetidine) in 5 ml/Kg of carboxymethylcellulose aqueous suspension 2%. 50 mg/Kg of ranitidine in 5 ml/Kg of carboxymethylcellulose aqueous suspension 2%. 60 mg/Kg of ranitidine nitrate (corresponding to […]) in 5 ml/Kg of carboxymethylcellulose aqueous suspension 2%. A hour later the animals are sacrificed and the gastric lesion incidence is evaluated.

rats [2] = settings: rat, in vivo, po, 100 mg/kg

Compound	Gastric Damage % (rats [1]) [%]	Gastric Damage % (rats [1]; mononitrate salt) [%]	toxic symptom presence (rats [2])
CN/C(=N/CCSCc1nc[nH]c1C)NC#N [Cimetidine, cimetidine, reference compound]	100	–	–
CNC(=C[N+](=O)[O-])NCCSCc1ccc(CN(C)C)o1 [Ranitidine, ranitidine, reference compound]	80	–	–
CNC(=C[N+](=O)[O-])NCCSCc1ccc(CN(C)C)o1 [Ranitidine.HNO3, ranitidine mononitrate salt]	–	40	In no one of the group animals the toxic symthom presence was noted
cimetidine mononitrate salt [Cimetidine.HNO3]	50	–	–
